Test results published in ChEMBL document CHEMBL3507680, “University of Dundee, Gates Library screen for HepG2 cell viability”.

Experiment: Human HepG2 cell viability assay in 384 well format
Type: toxicity, cell-based
Parameters: dose 125 nL, time 70.5 hour; concentration not given beside the values
Details: HepG2 cells, read-out: Inhibition

In order of rising cytotoxicity at 70.5 h:
1. Cc1cc(C)n(Cc2ccc(-c3noc(C(=O)NCCCO)n3)cc2)n1  -21.4%
2. CN1C[C@H]2CCN(C(=O)NC3CCCC3)CC[C@H]2S1(=O)=O  -17.8%
3. COc1cc(C)nc(N2CCN(C(=O)CNC(C)(C)C)CC2)n1  -15.6%
4. CCC(=O)N1CCCCC1c1nc(O)c2c(n1)CN(S(=O)(=O)CC)CC2 (configuration not stated)  -13.9%
5. O=S1(=O)c2ccccc2C2(CCN(Cc3cccnc3)C2)N1CC1CC1 (configuration not stated)  -11.1%
6. O=C(CC1NC(N2CCc3ccccc32)=NC1=O)Nc1ccc(Cl)cc1 (configuration not stated)  -11.1%
7. CCc1ncc2c(n1)CN(c1nccc(C3CCCC3)n1)C2  -10.9%
8. CC(C)CN1C[C@@H]2CN(S(=O)(=O)c3cccs3)C[C@@H]2C1=O  -10.3%
9. CCc1ocnc1C(=O)N1CCCC1c1noc(C2CC2)n1 (configuration not stated)  -9.72%
10. CCN1CCCC12CCCN(c1ncccn1)C2 (configuration not stated)  -9.5%
11. COc1ccc(OC)c(C2SCC(=O)Nc3n[nH]cc32)c1 (configuration not stated)  -9.28%
12. CCOc1ccc(CN(C)C(=O)COc2ccc(C)nc2)cc1  -8.96%
13. Cc1ccc(C(=O)N2CCC3(CCC(=O)N(CCCO)C3)CC2)c(O)c1  -8.79%
14. COCc1ccccc1NCc1csc(NC(C)=O)n1  -7.46%
15. CCOc1ccc(CNCc2ccc(C(=O)NC)cc2)cc1OCC  -7.21%
16. CCC(=O)N1CCC(c2nc(C)ncc2-c2ccncc2)CC1  -7.07%
17. OC1(CNC2CCN(c3ccccn3)CC2)CCc2ccccc21 (configuration not stated)  -6.83%
18. CNC(=O)c1cnc(/C=C/c2cc(OC)c3c(c2)OCCO3)s1  -6.59%
19. O=C(c1ccc(F)c(F)c1)N1CCCCC1c1nc[nH]n1 (configuration not stated)  -6.52%
20. CCc1nc(CN(C)C2CCN(CCc3cccs3)C2)no1 (configuration not stated)  -6.05%
21. Cc1nc(CNC(C(=O)N2CCOCC2)c2ccccc2)cs1 (configuration not stated)  -6.01%
22. CCc1nnsc1C(=O)N1CCCC(n2ccnc2C(C)C)C1 (configuration not stated)  -5.12%
23. Cc1cnc(NC(=O)C(C)n2ccc(C(F)(F)F)n2)s1 (configuration not stated)  -5.09%
24. CCn1ncc2c1CCCC2NCc1cscn1 (configuration not stated)  -5.01%
25. COC(=O)C(C)CN(C)S(=O)(=O)c1c(Br)cc2[nH]c(=O)oc2c1Cl (configuration not stated)  -4.98%
26. Cc1ccc(NC(=O)Cc2c(C)nc3c(c2C)c(=O)[nH]n3C)cc1F  -4.3%
27. Cc1noc(C(C)C)c1C(=O)NCc1cc(F)cc(F)c1  -4.07%
28. Cc1ccc(N(C)C2CCN(C(=O)c3n[nH]c4c3CCC4)CC2)nn1  -3.25%
29. CCC(=O)N(c1ccc(C(=O)OC)cc1C)C(C)C  -3.07%
30. CCc1nc(C)c(-c2nccn2CC2CCN(C3CCCC3)CC2)[nH]1  -2.56%
31. COCCNS(=O)(=O)c1cccc2c1CN(C(=O)c1cc(C)on1)CC2  -2.31%
32. Cc1cnn(C2CCCN(C(=O)CCc3c(C)noc3C)C2)c1 (configuration not stated)  -2.08%
33. Cc1nc(CN2CCc3ncnc(C4CC4)c3CC2)cs1  -2.07%
34. CN1CCN(C(=O)c2ccc(=O)n(C)c2)c2ccccc21  -1.74%
35. CS(=O)(=O)c1cn[nH]c1C1CCCCN1C(=O)c1ccsc1 (configuration not stated)  -1.64%
36. CO[C@@H]1CCN(S(=O)(=O)c2cn(C)cn2)[C@H]1Cc1ccccc1  -1.49%
37. CN(C)C(=O)N1CCO[C@@H]2CC(COCc3cccnc3)C[C@H]21 (some centres not stated)  -1.44%
38. CC(C)(C)C(=O)NCCC(=O)N1CCC(Nc2cccnn2)CC1  -0.84%
39. CC(C)(O)c1cc(CC2(NCc3ccccc3Cl)COC2)no1  -0.604%
40. COc1ncccc1CNC(=O)N1CCCC1c1ccsc1 (configuration not stated)  -0.312%
41. COC(=O)CC(NC(=O)c1cccc(N2CCCC2=O)c1)C(=O)OC (configuration not stated)  0.259%
42. CCN1C[C@H]2N(c3ncccn3)CCC[C@@]2(C(=O)NCC2CC2)C1  0.391%
43. CN(Cc1ccccc1)CC(C)(C)NC(=O)c1ccc(C(N)=O)cn1  1.67%
44. N#Cc1cccc(N2CCCC3(CCC(=O)N(C4CCCC4)C3)C2)n1 (configuration not stated)  4.95%
45. CN(C)c1ncccc1C(=O)N1CCN(C2=NCC(C)(C)S2)CC1  6.73%
46. O=C(N[C@@H]1CN(Cc2ccc3c(c2)OCO3)[C@@H]2CCCO[C@@H]21)C1CC1  8.84%
47. O=C(Cn1cc(C2CC2)nn1)N(Cc1ccco1)CC1CCCO1 (configuration not stated)  10.2%
48. Cc1cc(C(=O)N2CCN[C@H](C)C2)c2ccc(F)cc2n1  15.7%
49. CN(C)CC1CN(Cc2nc(-c3ccccn3)no2)CCO1 (configuration not stated)  16.4%
50. CC(=O)N1CCCC(C(=O)NCCOc2cc(C)cc(C)c2)C1 (configuration not stated)  18%
51. Cn1ncc(NCc2cccc(OCC(F)(F)F)c2)c(Cl)c1=O  18.3%
52. CC(NC(=O)NCC(C)(C)O)c1ccc(-c2cncnc2)cc1 (configuration not stated)  19.1%
53. CS(=O)(=O)N[C@H]1CN(C(=O)CCc2ccco2)C[C@@H]1C1CC1  19.3%
54. Cc1cccc(OCC(O)CN2CCC(Cn3cccn3)CC2)c1 (configuration not stated)  22.2%
55. CNc1cncc(C2CCN(C(=O)c3coc(C)n3)CC2)n1  24.2%
56. CC(=O)N(C)C1CCN(C(=O)c2cccc3c2ccn3C)CC1  24.8%
57. COCC(=O)N1CCC2(CCC2NS(=O)(=O)c2ccccc2)CC1 (configuration not stated)  28.8%
